Test systems include EKVX; HCT-116; HCT-15; HOP-92; HT-29; IGROV-1; KM12; LOX IMVI; M14; MOLT-4; SK-MEL-28; SNB-19; SW-620; TK-10; U-251; UACC-62; UO-31.
What all share (assay): NCI anticancer screen, dose series, 48 h

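Interpolation was linear, between the two tested concentrations surrounding the appropriate level; five concentrations were tested over 48 hours in 96-well plates. Abbreviation: GI50, concentration required for 50% inhibition of growth.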 The source made the active and inactive calls. Rule as the data show it: active = GI50 up to about 1.1 µM and inactive = higher.

Take `CCc1cccc(CC)c1NC1=CC(=O)C(=O)c2ccccc21`: the GI50 was 14.1 µM (inactive) in the assay on EKVX; 18.4 µM (inactive) with HCT-116; 10.3 µM in the assay with HCT-15; 15.1 µM (inactive) in the assay on HOP-92; 2.06 µM (inactive) in the assay with HT-29; 15.1 µM (inactive) in the assay with IGROV-1. Also, the GI50 was 15.4 µM (inactive) in the assay on KM12; 9.84 µM (inactive) in the assay with LOX IMVI; 13.5 µM (inactive) with M14; 45.7 µM (inactive) in the assay on MOLT-4; 15.6 µM (inactive) in the assay on SK-MEL-28; 23 µM (inactive) in the assay on SNB-19. In addition, the GI50 with SW-620 is 16.5 µM (inactive); in the assay on TK-10, 23.9 µM (inactive); in the assay with U-251, 15.3 µM (inactive); in the assay on UACC-62 it was 14 µM (inactive); in the assay on UO-31, 18.7 µM (inactive).
Turning to `CCOC(=O)C(C(=O)OCC)c1ccc([N+](=O)[O-])o1`, the GI50 with EKVX is 18.7 µM (inactive); in the assay with HCT-116 it was 15.6 µM (inactive); in the assay with HCT-15 it was 17.3 µM; with HOP-92, 6.62 µM (inactive); in the assay with HT-29, 14 µM (inactive); in the assay with IGROV-1, 20.3 µM (inactive). Moreover, the GI50 with KM12 was 17.5 µM (inactive); in the assay with LOX IMVI, 3.17 µM (inactive); with M14, 13.7 µM (inactive); in the assay on MOLT-4 it was 3.08 µM (inactive); in the assay on SK-MEL-28, 14.1 µM (inactive); with SNB-19, > 100 µM (inactive). For the same compound, the GI50 was 3.39 µM (inactive) with SW-620; 16.9 µM (inactive) in the assay with TK-10; 18.7 µM (inactive) in the assay on U-251; 17.9 µM (inactive) in the assay with UACC-62; 15.6 µM (inactive) in the assay with UO-31.
Turning to `CCOC(=O)Nc1ccc(S(=O)(=O)OC)cc1.CCOC(=O)Nc1ccc(S(=O)(=O)OC)cc1.Cc1cn(C2CC(O)C(CO)O2)c(=O)[nH]c1=O`, the GI50 is > 100 µM (inactive) in the assay with EKVX; 10 µM (inactive) with HCT-116; 18.6 µM in the assay on HCT-15; > 100 µM (inactive) in the assay on HOP-92; 54.8 µM (inactive) with HT-29; > 100 µM (inactive) in the assay on IGROV-1. Moreover, the GI50 is > 100 µM (inactive) in the assay with KM12; 18.3 µM (inactive) in the assay with LOX IMVI; > 100 µM (inactive) in the assay with M14; > 100 µM (inactive) in the assay with MOLT-4; > 100 µM (inactive) in the assay with SK-MEL-28; > 100 µM (inactive) in the assay on SNB-19. Moreover, the GI50 is 19.4 µM (inactive) in the assay with SW-620, > 100 µM (inactive) in the assay with TK-10, > 100 µM (inactive) with UACC-62 and > 100 µM (inactive) in the assay with UO-31.
For `O=C1Cc2ccccc2N1c1c(Cl)cccc1Cl`, the GI50 is 63.5 µM (inactive) in the assay with EKVX; 45.6 µM (inactive) in the assay on HCT-116; 46.9 µM in the assay on HCT-15; 50.2 µM (inactive) with HOP-92; 34.3 µM (inactive) in the assay on HT-29; 43.4 µM (inactive) in the assay with IGROV-1. The GI50 with KM12 was 31.8 µM (inactive); in the assay with LOX IMVI, 49.5 µM (inactive); in the assay on M14, 71 µM (inactive); with MOLT-4 it was 22.6 µM (inactive); with SK-MEL-28, 54 µM (inactive); with SNB-19, 79.1 µM (inactive). Besides, the GI50 in the assay with SW-620 is 38.6 µM (inactive); in the assay on TK-10 it was 98.4 µM (inactive); with U-251, 63.7 µM (inactive); with UACC-62 it was 40.2 µM (inactive); with UO-31 it was 24.3 µM (inactive).
As for `C/C(=N\NC(=S)Nc1ccc(C(=O)O)cc1)c1ccccn1`, the GI50 with EKVX was 27.9 µM (inactive); in the assay with HCT-116 it was 23.5 µM (inactive); in the assay on HCT-15 it was 26.5 µM; in the assay with HOP-92, 43.6 µM (inactive); with HT-29, 34.7 µM (inactive); in the assay on IGROV-1, 31.8 µM (inactive). For the same compound, the GI50 in the assay on KM12 was 25.5 µM (inactive); with LOX IMVI it was 16.7 µM (inactive); in the assay on M14, 15.1 µM (inactive); in the assay on MOLT-4, 33.3 µM (inactive); in the assay on SK-MEL-28, 44 µM (inactive); with SW-620, 19.2 µM (inactive). In addition, the GI50 in the assay with TK-10 is 30.6 µM (inactive); in the assay with U-251, 24.2 µM (inactive); in the assay on UACC-62, 5.04 µM (inactive); in the assay with UO-31 it was 11.6 µM (inactive).
Turning to `COc1cc2c3cc1Oc1c(O)c(OC)cc4c1C(Cc1ccc(O)c(c1)Oc1ccc(cc1)CC3N(C)CC2)N(C)CC4` (stereo not drawn), the GI50 with EKVX is 21.9 µM (inactive); in the assay on HCT-116, 6.55 µM (inactive); with HCT-15, 11.6 µM; in the assay with HOP-92 it was 11.9 µM (inactive); in the assay on HT-29 it was 7.13 µM (inactive); in the assay on IGROV-1, 26.2 µM (inactive). For the same compound, the GI50 was 11.1 µM (inactive) with KM12; 3.01 µM (inactive) in the assay with LOX IMVI; 3.11 µM (inactive) in the assay on M14; 8.34 µM (inactive) in the assay on MOLT-4; 18.3 µM (inactive) in the assay on SK-MEL-28; 26 µM (inactive) with SNB-19. Moreover, the GI50 with SW-620 was 4.44 µM (inactive); in the assay on TK-10, 13.6 µM (inactive); with U-251, 14.2 µM (inactive); in the assay with UACC-62, 23.2 µM (inactive); in the assay on UO-31 it was 15.8 µM (inactive).
Turning to `Cc1cccc(NC(=O)C(=O)C(C(=O)c2ccccc2F)C2OC(=O)c3ccccc32)c1Cl` (stereo not drawn), the GI50 was 37.9 µM (inactive) with EKVX; 20.3 µM (inactive) in the assay with HCT-116; 22.4 µM with HCT-15; 52.7 µM (inactive) in the assay with HOP-92; 31.5 µM (inactive) in the assay with HT-29; 56.8 µM (inactive) in the assay on IGROV-1. Further, the GI50 in the assay with KM12 is 25 µM (inactive); with LOX IMVI, 17.7 µM (inactive); in the assay with M14, 43.1 µM (inactive); in the assay with MOLT-4, 30.3 µM (inactive); with SK-MEL-28, 35.1 µM (inactive); in the assay with SNB-19, 31.1 µM (inactive). For the same compound, the GI50 in the assay with SW-620 was 42.5 µM (inactive); with TK-10 it was 63 µM (inactive); with U-251, 14.5 µM (inactive); in the assay on UACC-62, 23.2 µM (inactive); in the assay with UO-31 it was 37.2 µM (inactive).
`c1ccc(C2N=C(c3ccccn3)C(c3ccccn3)=NC2c2ccccc2)cc1` (stereo not drawn): the GI50 with EKVX was > 100 µM (inactive); in the assay on HCT-116 it was > 100 µM (inactive); in the assay with HCT-15, more than 100 µM; in the assay with HOP-92, > 100 µM (inactive); in the assay on HT-29 it was > 100 µM (inactive); in the assay with IGROV-1 it was > 100 µM (inactive). In addition, the GI50 in the assay with KM12 is > 100 µM (inactive); with LOX IMVI it was > 100 µM (inactive); in the assay on M14, > 100 µM (inactive); in the assay on MOLT-4, > 100 µM (inactive); in the assay on SK-MEL-28, > 100 µM (inactive); with SNB-19, 19.1 µM (inactive). In addition, the GI50 with SW-620, in the assay on TK-10, with U-251, with UACC-62 and in the assay with UO-31 was > 100 µM (inactive) each time.
Regarding `COc1ccc(NC(=O)C(=O)Cc2ccc([N+](=O)[O-])c([N+](=O)[O-])c2CC(=O)C(=O)Nc2ccc(OC)cc2OC)c(OC)c1`, the GI50 in the assay on EKVX is > 100 µM (inactive); with HCT-116, > 100 µM (inactive); with HCT-15 it was more than 100 µM; in the assay on HOP-92 it was > 100 µM (inactive); in the assay with HT-29, > 100 µM (inactive); in the assay on IGROV-1, > 100 µM (inactive). The GI50 in the assay on KM12, in the assay with LOX IMVI, with M14, with MOLT-4, in the assay with SK-MEL-28 and in the assay on SNB-19 was > 100 µM (inactive) each time. Moreover, the GI50 in the assay with SW-620, in the assay with TK-10, with U-251, in the assay on UACC-62 and in the assay with UO-31 was > 100 µM (inactive) throughout.
`C#CCOCn1cnc2ncnc(Cl)c21`: the GI50 with EKVX, in the assay on HCT-116, in the assay on HOP-92, in the assay on HT-29, in the assay with IGROV-1 and in the assay on KM12 was > 100 µM (inactive) throughout. Further, the GI50 in the assay on LOX IMVI, with M14, with MOLT-4, with SK-MEL-28, with SNB-19 and in the assay on SW-620 was > 100 µM (inactive) each time. Besides, the GI50 with TK-10, in the assay on U-251, in the assay on UACC-62 and in the assay on UO-31 was > 100 µM (inactive) in each case.
On to `COC(=O)CCC(=O)CC(=O)C1=NS(=O)(=O)c2nc(S(N)(=O)=O)c(Cl)cc2N1`, for which the GI50 in the assay with EKVX is > 100 µM (inactive); with HCT-116 it was > 100 µM (inactive); with HCT-15, more than 100 µM; in the assay on HOP-92 it was > 100 µM (inactive); in the assay with HT-29 it was > 100 µM (inactive); in the assay on IGROV-1, > 100 µM (inactive). The GI50 with KM12 is > 100 µM (inactive); in the assay with LOX IMVI it was 70.5 µM (inactive); in the assay with M14, > 100 µM (inactive); in the assay on MOLT-4, > 100 µM (inactive); in the assay on SK-MEL-28 it was > 100 µM (inactive); with SNB-19, > 100 µM (inactive). In addition, the GI50 with TK-10, with U-251, in the assay with UACC-62 and in the assay on UO-31 was > 100 µM (inactive) each time.
For `CC1(c2ccc(F)cc2)C(C#N)C(=O)NC(=O)C1C#N` (stereo not drawn), the GI50 in the assay on EKVX is 58.1 µM (inactive); with HCT-15 it was more than 100 µM; in the assay with HOP-92, > 100 µM (inactive); with HT-29, > 100 µM (inactive); in the assay with IGROV-1, > 100 µM (inactive); in the assay on KM12, > 100 µM (inactive). For the same compound, the GI50 with LOX IMVI, in the assay with M14, in the assay with MOLT-4, in the assay on SK-MEL-28, in the assay with SNB-19 and with SW-620 was > 100 µM (inactive) throughout. The GI50 with TK-10 was > 100 µM (inactive); with UACC-62 it was > 100 µM (inactive); in the assay on UO-31, 83.8 µM (inactive).

These data come from ChEMBL document CHEMBL1201862, “PubChem BioAssay data set” (2004).
